The target in this assay is T1, αvβ3 (vitronectin receptor) (Homo sapiens, UniProt P05106+P06756).
T1 construct: Human placenta or human platelet αvβ3 (0.1-0.3 mg/mL) in buffer T; from tissue; host or cells: human placenta or human platelets
The assay is described as follows: Solid-Phase [3H]-SK&F-107260 Binding to αvβ3. The note with it: read-out: concentration at which the compound inhibits vitronectin binding to SK&F 107260. The procedure:
Solid-Phase [^3H]-SK&F-107260 Binding to αvβ3: Human placenta or human platelet αvβ3 (0.1-0.3 mg/mL) in buffer T (containing 2 mM CaCl2 and 1% octylglucoside) was diluted with buffer T containing 1 mM CaCl2, 1 mM MnCl2, 1 mM MgCl2 (buffer A) and 0.05% NaN3, and then immediately added to 96-well ELISA plates (Corning, New York, N.Y.) at 0.1 mL per well. 0.1-0.2 μg of αvβ3 was added per well. The plates were incubated overnight at 4° C. At the time of the experiment, the wells were washed once with buffer A and were incubated with 0.1 mL of 3.5% bovine serum albumin in the same buffer for 1 hr at room temperature. Following incubation the wells were aspirated completely and washed twice with 0.2 mL buffer A. […]
The plates were incubated for 1 hr at room temperature. […] The receptors were solubilized with 0.1 mL of 1% SDS and the bound [^3H]-SK&F-107260 was determined by liquid scintillation counting with the addition of 3 mL Ready Safe in a Beckman LS Liquid Scintillation Counter, with 40% efficiency. Nonspecific binding of [^3H]-SK&F-107260 was determined in the presence of 2 μM SK&F-107260 and was consistently less than 1% of total radioligand input. […] The Ki (dissociation constant of the antagonist) was calculated according to the equation: Ki=IC50/(1+L/Kd), where L and Kd were the concentration and the dissociation constant of [^3H]-SK&F-107260, respectively.

This note sets out measurements from US20020019387A1, “Vitronectin receptor antagonist” (SmithKline Beecham Corporation, priority 1997, published 2002).

T1 sequence (P06756 31-889 limits assumed): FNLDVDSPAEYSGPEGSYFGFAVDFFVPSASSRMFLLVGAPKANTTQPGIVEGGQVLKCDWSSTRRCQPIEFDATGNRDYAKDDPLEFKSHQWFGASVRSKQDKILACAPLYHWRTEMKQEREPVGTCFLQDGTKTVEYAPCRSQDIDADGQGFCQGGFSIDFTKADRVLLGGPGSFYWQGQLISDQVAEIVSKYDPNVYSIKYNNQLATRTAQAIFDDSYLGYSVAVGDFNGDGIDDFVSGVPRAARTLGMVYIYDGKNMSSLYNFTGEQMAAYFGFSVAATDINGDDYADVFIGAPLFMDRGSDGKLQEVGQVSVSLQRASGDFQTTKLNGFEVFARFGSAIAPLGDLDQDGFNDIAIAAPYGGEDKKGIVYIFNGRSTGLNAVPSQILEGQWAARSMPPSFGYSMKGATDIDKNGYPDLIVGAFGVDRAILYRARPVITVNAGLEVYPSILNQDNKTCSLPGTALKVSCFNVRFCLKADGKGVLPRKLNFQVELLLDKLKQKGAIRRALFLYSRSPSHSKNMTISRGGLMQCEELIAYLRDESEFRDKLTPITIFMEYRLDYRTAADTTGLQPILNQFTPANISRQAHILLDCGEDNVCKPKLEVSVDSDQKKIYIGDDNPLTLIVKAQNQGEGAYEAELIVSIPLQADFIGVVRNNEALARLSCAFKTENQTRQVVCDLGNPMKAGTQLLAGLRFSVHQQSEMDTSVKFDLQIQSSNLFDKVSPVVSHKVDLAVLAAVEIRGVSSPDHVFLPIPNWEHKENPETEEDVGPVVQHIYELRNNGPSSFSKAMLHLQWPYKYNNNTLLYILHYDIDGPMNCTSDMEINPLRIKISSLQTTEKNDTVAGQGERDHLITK
T1 sequence (P06756 891-1048 partner limits assumed): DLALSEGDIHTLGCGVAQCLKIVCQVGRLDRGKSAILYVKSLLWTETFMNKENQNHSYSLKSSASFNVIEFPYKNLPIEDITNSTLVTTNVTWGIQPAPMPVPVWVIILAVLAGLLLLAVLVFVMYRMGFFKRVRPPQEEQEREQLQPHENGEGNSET
T1 sequence (P05106 27-788): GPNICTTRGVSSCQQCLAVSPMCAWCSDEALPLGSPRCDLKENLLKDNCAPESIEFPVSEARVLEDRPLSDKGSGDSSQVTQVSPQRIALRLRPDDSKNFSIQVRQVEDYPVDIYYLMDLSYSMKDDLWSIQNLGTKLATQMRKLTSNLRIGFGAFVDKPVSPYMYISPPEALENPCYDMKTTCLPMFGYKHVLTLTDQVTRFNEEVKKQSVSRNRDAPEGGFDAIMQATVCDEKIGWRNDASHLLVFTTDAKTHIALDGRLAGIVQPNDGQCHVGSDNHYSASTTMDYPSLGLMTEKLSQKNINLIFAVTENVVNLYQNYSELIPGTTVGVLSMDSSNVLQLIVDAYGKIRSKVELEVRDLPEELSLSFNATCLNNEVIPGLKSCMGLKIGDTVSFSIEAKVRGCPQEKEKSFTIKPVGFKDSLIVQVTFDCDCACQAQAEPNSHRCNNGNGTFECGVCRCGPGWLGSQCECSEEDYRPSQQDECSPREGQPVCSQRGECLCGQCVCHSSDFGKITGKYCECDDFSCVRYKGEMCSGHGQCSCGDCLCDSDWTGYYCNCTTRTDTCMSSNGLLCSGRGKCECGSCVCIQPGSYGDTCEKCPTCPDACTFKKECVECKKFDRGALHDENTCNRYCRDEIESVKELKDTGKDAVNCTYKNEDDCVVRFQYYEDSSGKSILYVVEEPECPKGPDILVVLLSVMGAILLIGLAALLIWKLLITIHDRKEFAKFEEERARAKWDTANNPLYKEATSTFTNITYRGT

Turning to `O=C(O)C[C@@H]1Cc2ccc(OCCCNc3ccccn3)cc2CN(Cc2ccc(F)c(F)c2F)C1=O` [Example 1, (S)-3-oxo-8-[3-(pyridin-2-ylamino)-1-propyloxy]-2-(2,3,4-trifluorobenzyl)-2,3,4,5-tetrahydro-1H-2-benzazepine-4-acetic acid], the IC50 was roughly 3 nM.
